Test results as given in US8313752B2, “Macrocyclic lactone combination compositions, vaccines and methods for producing same” (Merial Limited, priority 2009, dated 2012).
Where “and” joins values, the source holds several entries; their conditions need not be identical. Identical values can stand only once. Like-named read-outs stand apart in the source and are kept apart here. Blank lines part the entries; values can stand above or below the compound they belong to.

Key:
cattle = assay: Local tissue irritancy / injection site reactions after intramuscular injection; format: in vivo, Dairy cows (Friesian and Friesian cross); conditions: for Injection site reactions, Count, Day 1 / Injection site reactions, Count, Day 3 / Injection site reactions, Count, Day 7 / Injection site reactions, Count, Day 14 / Injection site reactions, Count, Day 21: cows with reaction in group of 4; for Animals with injection site reactions that persisted at least until 21 days after treatment: group of 4 cows
Method: (§1) Study Objectives: 1) To measure ML residues in milk and tissues of lactating dairy cows after a single dose of an experimental formulation of eprinomectin, ivermectin, moxidectin or doramectin combined with an inactivated rotavirus, coronavirus and Escherichia coli vaccine was administered by intramuscular injection at 0.3 and 0.4 mg macrocyclic lactone/kg bodyweight. 2) To evaluate local tissue irritancy of the experimental formulations when administered to cattle by intramuscular injection.
(§2) The formulations were administered by deep intramuscular injection in the anterior neck region. Injection sites were clean and dry and inspected for lesions prior to injection. Injections were administered with a different 10 mL syringe for each product. A sterile 18 gauge 1½ inch needle was used for each injection. The time of treatment was recorded. Evidence of pain on injection was assessed.
Injection sites were examined by inspection and palpation at the morning milking on Days 1, 3, 7 and 14. Any visible or palpable reactions were described and measured (width, length and depth). Reactions that persisted after day 14 were re-evaluated on Day 21.

[1] = cited from earlier work
[2] = ML residues in milk of lactating dairy cows after single IM dose of ML/vaccine combination (LC-MS/MS); format: in vivo, Dairy cows (Friesian and Friesian cross); conditions: for ML residue in milk, Day 14 / ML residue in milk, Day 21 / ML residue in milk, Day 7 / concentration at 7 day / concentration at 14 day / concentration at 21 day / ML residue in milk fat, Day 7 / ML residue in milk fat, Day 14 / ML residue in milk fat, Day 21: individual cows; for Residues in milk at 7 days after treatment relative to ACVM MRLs / Residues in milk at 21 days after treatment relative to LOQ: 0.3 and 0.4 mg/kg IM; for concentration at 7 day / concentration at 14 day / concentration at 21 day: female, Friesian and Friesian cross, cattle, intramuscular
Method: as §1
Experimental formulations of each of four macrocyclic lactones were separately combined with equal parts of a registered vaccine, Rotavec® Corona (Schering-Plough). The recommended dose of Rotavec® Corona is 2 mL per animal, which was diluted to produce 4 mL of ML/vaccine combination. Each ML/vaccine combination contained 40 mg/mL macrocyclic lactone.
Methods: On day −5, fifty-four animals were identified for screening and were checked for mastitis by palpation of the mammary gland, visualization of the mammary secretions and Rapid Mastitis Test (RMT, Immucell, Portland, Me.). Individual milk samples were collected for somatic cell count (SCC) and thirty-three animals that met the inclusion criteria were selected for the study. Of the thirty-three animals, the cow with the highest average daily milk yield, as assessed over a seven-day period, was allocated as the control. The remaining thirty-two animals were ranked from highest to lowest on average daily milk yield, over the same time period, and divided into four blocks of eight animals each. A random number was generated for each animal using the Microsoft Excel random number generator function. Within each block, the lowest random number was allocated to Group 1, the second lowest to Group 2 and sequentially through to Group 8, creating eight groups of four animals each (Table 18).
On Day 0, the cows were weighed and blood samples were collected from all animals in Groups 1 and 2 for use in a subsequent plasma eprinomectin assay. The blood samples were stored frozen at or colder than −18° C. pending laboratory analysis. Each animal was treated with the indicated formulation at the appropriate dose rate. Doses were calculated based upon the animal's Day 0 bodyweight to provide approximately 40 mg ML/mL. Calculated doses were rounded up to the nearest 0.2 mL.
as §2
Blood samples were collected from all animals in Groups 1 and 2 for plasma eprinomectin assay on Days 1, 3 and 7 and stored frozen as described. The time of blood collection was recorded. Herd test equipment (De Laval) was used to collect an approximately 2% sample representative of the entire milking for each individual cow at the morning milking on each of Days 1-10 following treatment, and at the morning milking on Days 14, 21 and 35. Duplicate subsamples were decanted for each cow in Groups 1-4 and 7-9 and triplicate subsamples were decanted for each cow in Groups 5-6. Each sample from treated animals measured approximately 30 mL. The start and finish times for each milking of the 33 study animals were recorded to give an estimate of the actual time of milk sample collection.
The study animals were milked after the main herd. The milk line was thoroughly flushed with cold water prior to milking the study animals. The herd test equipment was cleaned between samplings. It was washed “in-line” with the milking plant wash. Sample vessels were then further cleaned through a dishwasher. The sampler connections were further cleaned by soaking in hot acid, then rinsed. Milk yields at each milking at which samples were collected were measured and recorded. […]

[3] = lactating cattle; cited from earlier work
[4] = administered topically to cattle
[5] = nominal 0.3 mg/kg single IM dose of ML/Rotavec Corona combination, milk (whole milk)
[6] = nominal 0.4 mg/kg single IM dose of ML/Rotavec Corona combination, milk (whole milk)
[7] = milk, 0.3 mg/kg, nominal 0.3 mg/kg single IM dose of ML/Rotavec Corona combination, milk (whole milk), read-out: ML residue in milk, Day 21
[8] = nominal 0.3 mg/kg single IM dose of ML/Rotavec Corona combination, milk fat
[9] = nominal 0.4 mg/kg single IM dose of ML/Rotavec Corona combination, milk fat

Compound: CCC(C)C1OC2(C=CC1C)CC1CC(CC=C(C)C(OC3CC(OC)C(OC4CC(OC)C(NC(C)=O)C(C)O4)C(C)O3)C(C)C=CC=C3COC4C(O)C(C)=CC(C(=O)O1)C34O)O2 (stereo not shown) [Eprinomectin]
Injection site reactions, Count, Day 1 (cattle; 0.3 mg/kg IM): 0
Injection site reactions, Count, Day 3 (cattle; 0.3 mg/kg IM): 1
Injection site reactions, Count, Day 7 (cattle; 0.3 mg/kg IM): 1
Injection site reactions, Count, Day 14 (cattle; 0.3 mg/kg IM): 1
Injection site reactions, Count, Day 21 (cattle; 0.3 mg/kg IM): 1
Animals with injection site reactions that persisted at least until 21 days after treatment (cattle; 0.3 mg/kg IM): One
Injection site reactions, Count, Day 1 (cattle; 0.4 mg/kg IM): 2
Injection site reactions, Count, Day 3 (cattle; 0.4 mg/kg IM): 2
Injection site reactions, Count, Day 7 (cattle; 0.4 mg/kg IM): 1
Injection site reactions, Count, Day 14 (cattle; 0.4 mg/kg IM): 1
Injection site reactions, Count, Day 21 (cattle; 0.4 mg/kg IM): 1
Animals with injection site reactions that persisted at least until 21 days after treatment (cattle; 0.4 mg/kg IM): One
Parent compound share of residues in feces [1, 4]: more than 85%
Parent compound share of residues in tissues [1, 4]: 90%
Milk-plasma coefficient ([1]; cattle): ≤ 0.2
Residues in milk at 14 days after treatment relative to LOQ ([2]; all study animals (0.3 and 0.4 mg/kg IM)): below the limit of quantitation (LOQ)
Residues in milk at 7 days after treatment ([2]; all study animals (0.3 and 0.4 mg/kg IM), compared with MRL): < 0.02 mg/kg
Withholding period (milk) ([2]; estimated from residue data relative to the MRLs that apply in Europe): 7 days
ML residue in milk, Day 14 [2, 5]: <0.0010 mg/kg
ML residue in milk, Day 21 [2, 5]: <0.0010 mg/kg
ML residue in milk, Day 7 ([2]; nominal 0.3 mg/kg single IM dose of ML/Rotavec Corona combination, milk (whole milk), listed as Eprinomectin B1a): 0.0012 mg/kg and 0.0017 mg/kg and <0.0010 mg/kg and 0.0023 mg/kg
ML residue in milk, Day 14 [2, 6]: <0.0010 mg/kg
ML residue in milk, Day 21 [2, 6]: <0.0010 mg/kg
ML residue in milk, Day 7 ([2]; nominal 0.4 mg/kg single IM dose of ML/Rotavec Corona combination, milk (whole milk), listed as Eprinomectin B1a): <0.0010 mg/kg (2×) and 0.0021 mg/kg and 0.0013 mg/kg
Elimination in milk, fold less than ivermectin or moxidectin [3]: 50 fold
Share of the total dose eliminated in the milk [3]: 0.1%

Residues in milk at 7 days after treatment relative to ACVM MRLs [2]: near or above the ACVM MRLs
Residues in milk at 21 days after treatment relative to LOQ [2]: above the LOQ
concentration at 7 day ([2]; milk fat, 0.3 mg/kg, nominal 0.3 mg/kg single IM dose of ML/Rotavec Corona combination, milk fat, read-out: ML residue in milk fat, Day 7): 800 ng/g
concentration at 14 day ([2]; milk fat, 0.3 mg/kg, nominal 0.3 mg/kg single IM dose of ML/Rotavec Corona combination, milk fat, read-out: ML residue in milk fat, Day 14): 140 ng/g
concentration at 21 day ([2]; milk fat, 0.3 mg/kg, nominal 0.3 mg/kg single IM dose of ML/Rotavec Corona combination, milk fat, read-out: ML residue in milk fat, Day 21): 59 ng/g
concentration at 7 day ([2]; milk fat, 0.4 mg/kg, nominal 0.4 mg/kg single IM dose of ML/Rotavec Corona combination, milk fat, read-out: ML residue in milk fat, Day 7): 860 ng/g
concentration at 7 day ([2]; milk, 0.3 mg/kg, nominal 0.3 mg/kg single IM dose of ML/Rotavec Corona combination, milk (whole milk), read-out: ML residue in milk, Day 7): 40 ng/g
concentration at 14 day ([2]; milk, 0.3 mg/kg, nominal 0.3 mg/kg single IM dose of ML/Rotavec Corona combination, milk (whole milk), read-out: ML residue in milk, Day 14): 7.8 ng/g
concentration at 21 day [2, 7]: 2.6 ng/g
concentration at 7 day ([2]; milk, 0.4 mg/kg, nominal 0.4 mg/kg single IM dose of ML/Rotavec Corona combination, milk (whole milk), read-out: ML residue in milk, Day 7): 50 ng/g
ML residue in milk fat, Day 7 [2, 8]: 1.1 mg/kg and 1.0 mg/kg and 0.75 mg/kg
ML residue in milk fat, Day 14 [2, 8]: 0.26 mg/kg and 0.24 mg/kg and 0.18 mg/kg
ML residue in milk fat, Day 7 [2, 9]: 1.2 mg/kg and 1.5 mg/kg and 1.0 mg/kg
Compound: CO/N=C1\C[C@]2(C[C@@H]3C[C@@H](C/C=C(\C)C[C@@H](C)/C=C/C=C4\CO[C@@H]5[C@H](O)C(C)=C[C@@H](C(=O)O3)[C@]45O)O2)O[C@H](/C(C)=C/C(C)C)[C@H]1C [Moxidectin, moxidectin]
ML residue in milk, Day 7 [2, 5]: 0.063 mg/kg and 0.042 mg/kg and 0.034 mg/kg
ML residue in milk, Day 14 [2, 5]: 0.010 mg/kg and 0.0099 mg/kg and 0.0079 mg/kg
ML residue in milk, Day 21 [2, 5]: 0.0040 mg/kg and 0.0031 mg/kg and 0.0041 mg/kg
ML residue in milk fat, Day 21 [2, 8]: 0.080 mg/kg and 0.068 mg/kg and 0.075 mg/kg
ML residue in milk, Day 7 [2, 6]: 0.044 mg/kg and 0.056 mg/kg and 0.037 mg/kg
ML residue in milk, Day 14 [2, 6]: 0.0081 mg/kg and 0.012 mg/kg and 0.015 mg/kg and 0.0069 mg/kg
ML residue in milk, Day 21 [2, 6]: 0.0055 mg/kg (2×) and 0.0037 mg/kg and 0.0023 mg/kg
ML residue in milk fat, Day 14 [2, 9]: 0.17 mg/kg and 0.37 mg/kg and 0.47 mg/kg and 0.15 mg/kg
ML residue in milk fat, Day 21 [2, 9]: 0.091 mg/kg and 0.12 mg/kg and 0.14 mg/kg and 0.057 mg/kg

Residues in milk at 7 days after treatment relative to ACVM MRLs [2]: near or above the ACVM MRLs
Residues in milk at 21 days after treatment relative to LOQ [2]: above the LOQ
concentration at 21 day [2, 7]: < 1 ng/g
concentration at 21 day ([2]; milk, 0.4 mg/kg, nominal 0.4 mg/kg single IM dose of ML/Rotavec Corona combination, milk (whole milk), read-out: ML residue in milk, Day 21): 1 ng/g
ML residue in milk, Day 21 [2, 5]: <0.0010 mg/kg (2×) and 0.0020 mg/kg
ML residue in milk, Day 21 [2, 6]: 0.0014 mg/kg (2×) and <0.0010 mg/kg
Compound: CO[C@H]1C[C@H](O[C@H]2[C@H](C)O[C@@H](O[C@@H]3/C(C)=C/C[C@@H]4C[C@@H](C[C@]5(C=C[C@H](C)[C@@H](C6CCCCC6)O5)O4)OC(=O)[C@@H]4C=C(C)[C@@H](O)[C@H]5OC/C(=C\C=C\[C@@H]3C)[C@]54O)C[C@@H]2OC)O[C@@H](C)[C@@H]1O [Doramectin]
ML residue in milk, Day 7 [2, 5]: 0.0058 mg/kg and 0.0037 mg/kg and 0.0077 mg/kg and 0.0079 mg/kg
ML residue in milk, Day 14 [2, 5]: <0.0010 mg/kg and 0.0012 mg/kg and 0.0031 mg/kg and 0.0015 mg/kg
ML residue in milk, Day 7 [2, 6]: 0.014 mg/kg and 0.0061 mg/kg and 0.011 mg/kg and 0.0056 mg/kg
ML residue in milk, Day 14 [2, 6]: 0.0025 mg/kg (2×) and 0.0028 mg/kg and <0.0010 mg/kg
